Measurements as given in patent US20250241905A1, “3-BETA-HSD1 INHIBITORS AND COMPOSITIONS AND USES THEREOF” (The Cleveland Clinic Foundation, priority 2022, published 2025).

Biological target: human 3β-HSD1
Assay: 3β-HSD1 inhibition, colorimetric NADH detection assay
Format: biochemical
Details: purified recombinant human 3β-HSD1, 50 μM DHEA, 2 mM NAD+, 1 hour, room temperature, duplicate 10-point CRC; read-out: IC50 (nM), in vitro NADH inhibition
Text: Enzymatic turnover was quantified through NADH generation by purified, recombinant human 3β-HSD1 (expressed in Sf9 insect cells) in the presence of steroidal substrate trans-Dehydroandrosterone (DHEA) that was placed slightly above the experimentally determined Km and saturating amounts of co-factor Nicotinamide adenine dinucleotide (NAD^+). The sequence of recombinant human 3β-HSD1 used is […] […] […] […] […] […] […] (SEQ ID NO: 3). DHEA and NAD+ were enzymatically converted to androstenedione and NADH, respectively. Final NADH concentrations were spectroscopically quantified using a commercially available Amplite™ Colorimetric NADH Assay Kit which utilizes an NADH probe with an absorbance wavelength of 460 nm. Enzymatic assays with a final volume of 25 μL were ran in a 384-well, Greiner Bio-One UV-STAR® assay plate in 50 mM TRIS pH 8.0 assay buffer. […] Compound stocks at 10 mM in DMSO were serial diluted 5-fold in DMSO to generate an ECHO® compatible source plate. 125 nL of DMSO, Trilostane, or serial diluted compounds were then acoustically transferred into an empty UV-STAR® assay plate to give a final assay concentration of 0.5% v/v DMSO. The stamp volume and dilution scheme can be adjusted to accommodate compound potency. The assay can tolerate up to a 5% v/v DMSO final assay concentration. 15 μL of 1 μg purified 3β-HSD1 and 50 μM DHEA (final assay volume concentration) was dispensed per well into the stamped plate, centrifuged for 1 minute at 1000 RPM, covered, and allowed to incubate for 15 minutes at room temp. Enzymatic reactions were initiated upon the addition of 10 μL of NAD^+ diluted in assay buffer to give a final assay volume concentration of 2 mM. The assay plate was centrifuged for 1 minute at 1000 RPM, covered, and incubated at room temperature for 1 hour. 25 μL Amplite™ Colorimetric NADH Assay Kit detection solution (prepared as recommended) was added to all reaction wells, the plate centrifuged for 1 minute at 1000 RPM, covered, and incubated for 15 minutes. Final absorbance values (λ=460 nm) are spectroscopically determined on BioTek® Cytation5 or Synergy4 plate readers. […] From the background subtracted values, the non-inhibited enzyme signal (DMSO treated) was averaged from 32 control reactions. The percent inhibition value was calculated by: % inhibition=(1−((background subtracted inhibited reaction)/(background subtracted non-inhibited average)))*100. The resulting percent inhibition was then plotted in duplicate against corresponding concentration values. The resulting CRCs were fit with a four parameter, variable slope log (inhibitor) vs response equation where Y=bottomvalue+ (topvalue−bottomvalue)/(1+10^((log IC50−X)*Hillslope)) to determine the IC50 values for tested compounds.

Chain of human 3β-HSD1 (P14060 2-373 limits assumed): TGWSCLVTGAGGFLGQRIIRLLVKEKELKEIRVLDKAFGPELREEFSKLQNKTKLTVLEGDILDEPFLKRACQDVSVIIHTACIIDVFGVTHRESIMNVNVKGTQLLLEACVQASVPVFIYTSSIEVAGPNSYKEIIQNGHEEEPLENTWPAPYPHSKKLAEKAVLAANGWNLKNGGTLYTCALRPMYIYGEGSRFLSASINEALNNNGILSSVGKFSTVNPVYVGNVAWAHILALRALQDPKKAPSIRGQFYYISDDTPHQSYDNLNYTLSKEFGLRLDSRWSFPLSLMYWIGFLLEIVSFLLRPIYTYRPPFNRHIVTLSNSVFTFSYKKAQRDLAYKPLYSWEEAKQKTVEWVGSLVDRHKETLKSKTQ

SMILES	IC50
NC1CCCc2nc(-c3cc(F)c(O)c(F)c3)ccc21 (centres unmarked) [Compound 15]	3440 nM
O=C1CCCc2nc(-c3cc(F)c(O)c(Cl)c3)ccc21 [Compound 23]	49 nM
O=C1c2ccc(-c3cc(F)c(O)c(F)c3)nc2CCC1CC1CC1 (centres unmarked) [Compound 29]	130 nM
O=C1c2ccc(-c3cc(F)c(O)c(F)c3)nc2CCC12COC2 [Compound 63]	370 nM
CC1(C)CCc2nc(-c3ccc(O)c(C#N)c3)ccc2C1=O [Compound 4, 5-(6,6-dimethyl-5-oxo-5,6,7,8-tetrahydroquinolin-2-yl)-2-hydroxybenzonitrile]	1860 nM
COCC1(C)CCc2nc(-c3cc(F)c(O)c(F)c3)ccc2C1=O (centres unmarked) [Compound 75]	338 nM
CC1(C)CCc2nc(-c3ccc(O)c(F)c3)ccc2C1=O [Compound 6, 2-(3-fluoro-4-hydroxyphenyl)-6,6-dimethyl-7,8-dihydroquinolin-5(6H)-one]	51 nM
O=C1CCCCc2nc(-c3cc(F)c(O)c(F)c3)ccc21 [Compound 32]	90 nM
COC1(C(C)C)CCCc2nc(-c3cc(F)c(O)c(F)c3)ccc21 (centres unmarked) [Compound 87]	45 nM
CC1(C)CCc2nc(-c3cc(F)c(O)c(Cl)c3)ccc2C1=O [Compound 54]	107 nM
CC1(O)CCc2nc(-c3cc(F)c(O)c(F)c3)ccc2C1=O (centres unmarked) [Compound 34]	446 nM
CN(C)CC1(C)CCc2nc(-c3cc(F)c(O)c(F)c3)ccc2C1=O (centres unmarked) [Compound 60]	1170 nM
CCC1(O)CCCc2nc(-c3cc(F)c(O)c(F)c3)ccc21 (centres unmarked) [Compound 43]	365 nM
Oc1c(F)cc(-c2ccc3c(n2)CCCC3(O)c2cccnc2)cc1F (centres unmarked) [Compound 92]	68 nM
COC1(C)CCCc2nc(-c3cc(F)c(O)c(F)c3)ccc21 (centres unmarked) [Compound 79]	38 nM
CC1(C)CCc2nc(-c3cc(F)c(O)c(C#N)c3)ccc2C1=O [Compound 67]	1880 nM
C[C@]1(Cc2ccccc2)CCc2nc(-c3cc(F)c(O)c(F)c3)ccc2C1=O [Compound 57]	78 nM
N#Cc1cc(-c2ccc3c(n2)CCCC3=O)ccc1O [Compound 3, 2-hydroxy-5-(5-oxo-5,6,7,8-tetrahydroquinolin-2-yl)benzonitrile]	651 nM
O=C(O)CC1CCc2nc(-c3cc(F)c(O)c(F)c3)ccc2C1=O (centres unmarked) [Compound 37]	2840 nM
CC1(CO)CCc2nc(-c3cc(F)c(O)c(F)c3)ccc2C1=O (centres unmarked) [Compound 52]	222 nM
CC1(C)CCc2nc(-c3cc(F)c(O)c(F)c3)ncc2C1=O [Compound 66]	414 nM

SMILES	IC50
CC1(C#N)CCc2nc(-c3cc(F)c(O)c(F)c3)ccc2C1=O (centres unmarked) [Compound 35]	92 nM
COC1(c2ncco2)CCCc2nc(-c3cc(F)c(O)c(F)c3)ccc21 (centres unmarked) [Compound 95]	100 nM
CN1CC(C)(C)C(=O)c2ccc(-c3cc(F)c(O)c(F)c3)nc21 [Compound 68]	308 nM
CC1(C(F)(F)F)CCc2nc(-c3cc(F)c(O)c(F)c3)ccc2C1=O (centres unmarked) [Compound 36]	59 nM
CC1(C)CCc2nc(-c3ccc(O)c(C(F)(F)F)c3)ccc2C1=O [Compound 50]	1500 nM
CC1(C)Cc2nc(-c3cc(F)c(O)c(F)c3)ccc2C1=O [Compound 72]	221 nM
Oc1c(F)cc(-c2ccc3c(n2)CCCC3O)cc1F (centres unmarked) [Compound 13]	748 nM
Oc1c(F)cc(-c2ccc3c(n2)CCCC3OCC2COC2)cc1F (centres unmarked) [Compound 74]	441 nM
CC1(C)CCc2nc(-c3ccc(O)c(Cl)c3)ccc2C1=O [Compound 49]	26 nM
CC1(C(F)(F)C(F)(F)F)CCc2nc(-c3cc(F)c(O)c(F)c3)ccc2C1=O (centres unmarked) [Compound 88]	78 nM
C[C@@]1(Cc2ccccc2)CCc2nc(-c3cc(F)c(O)c(F)c3)ccc2C1=O [Compound 58]	55 nM
CC[C@]1(C)CCc2nc(-c3cc(F)c(O)c(F)c3)ccc2C1=O [Compound 56]	110 nM
COC1(c2cccnc2)CCCc2nc(-c3cc(F)c(O)c(F)c3)ccc21 (centres unmarked) [Compound 91]	25 nM
CC1(F)CCc2nc(-c3cc(F)c(O)c(F)c3)ccc2C1=O (centres unmarked) [Compound 46]	42 nM
CC1(C2(O)COC2)CCc2nc(-c3cc(F)c(O)c(F)c3)ccc2C1=O (centres unmarked) [Compound 86]	1420 nM
O=C1CCCc2nc(-c3c(F)c(F)c(O)c(F)c3F)ccc21 [Compound 28]	3000 nM
O=C1CCOc2nc(-c3cc(F)c(O)c(F)c3)ccc21 [Compound 64]	433 nM
CC1(C)CNc2nc(-c3cc(F)c(O)c(F)c3)ccc2C1=O [Compound 69]	470 nM
O=C1c2ccc(-c3cc(F)c(O)c(F)c3)nc2CC[C@@H]1Cc1ccccc1 [Compound 47]	177 nM
CC1(C)CCc2nc(-c3cnc(O)c(F)c3)ccc2C1=O [Compound 65]	> 20000 nM

More lines, in order of falling IC50, values ahead:

IC50	SMILES
8610 nM	CC(C)c1cc(-c2cc(F)c(O)c(F)c2)nc2c1C(=O)CCC2 [Compound 45]
7640 nM	O=C1CCCc2nc(-c3cc(F)c(O)c(F)c3)cnc21 [Compound 70]
6100 nM	O=C1CCCc2nc(-c3cnc(O)c(F)c3)ccc21 [Compound 21]
2170 nM	Cc1cc(-c2ccc3c(n2)CCC(C)(C)C3=O)cc(Cl)c1O [Compound 78]
1540 nM	CC1(C)CCc2nc(-c3cc(F)c(O)cc3F)ncc2C1=O [Compound 85]
1280 nM	CCc1cc(-c2cc(F)c(O)c(F)c2)nc2c1C(=O)CCC2 [Compound 44]
1070 nM	Oc1c(F)cc(-c2ccc3c(n2)CCCC3OC2COC2)cc1F (centres unmarked) [Compound 77]
991 nM	Cc1cc(-c2cc(F)c(O)c(F)c2)nc2c1C(=O)CCC2 [Compound 31]
556 nM	COCCN1CC(C)(C)C(=O)c2ccc(-c3cc(F)c(O)c(F)c3)nc21 [Compound 83]
504 nM	CC1(C)CCc2nc(-c3ccc(O)c(F)c3)ccc2C1(C)O (centres unmarked) [Compound 18]
367 nM	Cc1c(-c2ccc3c(n2)CCCC3=O)cc(F)c(O)c1F [Compound 27]
339 nM	CC1(O)CCCc2nc(-c3cc(F)c(O)c(F)c3)ccc21 (centres unmarked) [Compound 14]
326 nM	CCN1CC(C)(C)C(=O)c2ccc(-c3cc(F)c(O)c(F)c3)nc21 [Compound 82]
326 nM	Cc1cc(-c2ccc3c(n2)CCC(C)(C)C3=O)c(F)c(F)c1O [Compound 81]
314 nM	CC1(C)CCc2nc(-c3cc(F)c(O)c(F)c3)ccc2C1(O)c1ccccc1 (centres unmarked) [Compound 19]
303 nM	O=C1c2ccc(-c3cc(F)c(O)c(F)c3)nc2CCC12CCC2 [Compound 30]
292 nM	CC1(C)CCCc2nc(-c3cc(F)c(O)c(F)c3)ccc2C1=O [Compound 33]

IC50	SMILES
287 nM	CC1(C)CC(=O)c2ccc(-c3cc(F)c(O)c(F)c3)nc2C1 [Compound 42]
238 nM	Oc1c(F)cc(-c2ccc3c(n2)CCCC3(O)c2ccccn2)cc1F (centres unmarked) [Compound 94]
227 nM	CC1(C)CCc2nc(-c3cc(F)c(O)c(F)c3)ccc2C1(O)Cc1ccccc1 (centres unmarked) [Compound 17]
218 nM	O=C1CCNc2nc(-c3cc(F)c(O)c(F)c3)ccc21 [Compound 26]
212 nM	O=C1c2ccc(-c3cc(F)c(O)c(F)c3)nc2CCC1Cc1ccncc1 (centres unmarked) [Compound 40]
204 nM	COC1CCCc2nc(-c3cc(F)c(O)c(F)c3)ccc21 (centres unmarked) [Compound 53]
188 nM	CC1(CC(F)(F)F)CCc2nc(-c3cc(F)c(O)c(F)c3)ccc2C1=O (centres unmarked) [Compound 89]
152 nM	CC1(C)CCc2nc(-c3cc(F)c(O)c(F)c3F)ccc2C1=O [Compound 80]
149 nM	O=C1c2ccc(-c3cc(F)c(O)c(F)c3)nc2CCC1F (centres unmarked) [Compound 51]
131 nM	COC1(c2ccccn2)CCCc2nc(-c3cc(F)c(O)c(F)c3)ccc21 (centres unmarked) [Compound 93]
127 nM	O=C1c2ccc(-c3cc(F)c(O)cc3F)nc2CCC12CC2 [Compound 61]
122 nM	CC1(C)CCc2nc(-c3ccc(O)c(F)c3F)ccc2C1=O [Compound 73]
83 nM	O=C1CCCc2nc(-c3cc(F)c(O)cc3F)ccc21 [Compound 24]
67 nM	Cc1cc(-c2ccc3c(n2)CCC(C)(C)C3=O)cc(F)c1O [Compound 71]
52 nM	CCOC1(c2ccccc2)CCCc2nc(-c3cc(F)c(O)c(F)c3)ccc21 (centres unmarked) [Compound 90]
19 nM	O=C1c2ccc(-c3cc(F)c(O)c(F)c3)nc2CC[C@H]1Cc1ccccc1 [Compound 48]
